According to US20250304620A1, “ANTIMICROBIAL PEPTIDE AND APPLICATION THEREOF” (priority 2023, published 2025):
Converted amounts (≈) assume the structure as drawn. Marks after values point to notes of the source that are not given here. Non-standard residues stand in square brackets, D forms with d. Residues, ends and D or L forms follow the SMILES beside them. d2Nal = N[C@H](Cc1ccc2ccccc2c1)C(=O)O

Columns and labels:
[1] = test system: Staphylococcus aureus (NRS 384); assay: microbe, parasite or virus in culture; type: cell-based; conditions: NRS 384
Procedure, shortened: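 CLSI broth microdilution with serial twofold dilutions gave MICs against S. aureus NRS 384, with 5 parallel replicates. Levofloxacin and the AMP Cbf-K16 served as positive controls.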

[2] = test system: Candida glabrata ATCC 15126; type: cell-based
Procedure, shortened: (§1)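 The assay follows US Clinical and Laboratory Standards Institute rules: a serial twofold microdilution of each peptide against each organism gives the MIC. Experiments were carried out five times side by side.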

[3] = test system: Candida krusei ATCC 6258; type: cell-based
Procedure, shortened: as §1

[4] = test system: Corynebacterium ATCC 7715; type: cell-based
Procedure, shortened: as §1

[5] = test system: Trichophyton ATCC MYA-4438; type: cell-based
Procedure, shortened: as §1

[6] = test system: Shigella flexneri ATCC 12022; assay: MIC against clinically common bacterial strain; type: cell-based
Procedure, shortened: as §1

[7] = test system: Methicillin-resistant Staphylococcus aureus (MRSA); type: cell-based; conditions: Methicillin-resistant
Procedure, shortened: (§2)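 Antimicrobial peptide susceptibility is measured against clinically isolated resistant bacteria using the CLSI microdilution method.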

[8] = test system: carbapenem-resistant Escherichia coli (CREC); type: cell-based; conditions: carbapenem-resistant (CREC)
Procedure, shortened: as §2

[9] = test system: carbapenem-resistant Klebsiella pneumoniae (CRKP); type: cell-based; conditions: carbapenem-resistant (CRKP)
Procedure, shortened: as §2

[10] = test system: carbapenem-resistant Pseudomonas aeruginosa (CRPA); type: cell-based; conditions: carbapenem-resistant (CRPA)
Procedure, shortened: as §2

[11] = test system: vancomycin-resistant Enterococcus (VRE); type: cell-based
Procedure, shortened: as §2

[12] = test system: rabbit red blood cells; type: cell-based; conditions: red cells of rabbit, 1 h
[13] = test system: Staphylococcus aureus (NRS 384); conditions: NRS 384, 3 h
Method: Trypsin (250 U/mg, pH=8.0) and AMPs (LV-1 to LV-30) were mixed in a ratio of 1:10 (w/w) and added to a reaction buffer (0.2 M sodium phosphate, 1 mM CaCl2), pH 7.5), and then incubated at 37° C. for 3 h.

[14] = test system: Escherichia coli ATCC 25922; assay: Oral formulations on mice with systemic bacterial infection; type: in vivo, ICR mice; conditions: three times a day for 7 days; for Number of mice that died on each day after infection: day 4 / Number of mice that died on each day after infection: day 5 / Number of mice that died on each day after infection: day 6 / Number of mice that died on each day after infection: day 7 / Number of mice that died on each day after infection: day 8 / Average survival times (Days): n = 10; for Average survival times (Days): observed for 14 d; for survival time of mice infected with Escherichia coli: gavage, observed 14 d
Procedure, shortened: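 ICR mice of both sexes, 10 per group, infected i.p. with 0.2 mL E. coli ATCC 25922 at 1×10^7 CFU/mL. Compounds gavaged by body weight immediately after infection, three times daily for 7 days; deaths and survival time recorded over 14 d observation.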

[15] = Serum stability assay (residual level by RP-HPLC); conditions: human

Structure (SMILES) | MIC against Staphylococcus aureus (NRS 384) [1] | MIC Candida glabrata ATCC 15126 [2] | MIC Candida krusei ATCC 6258 [3] | MIC Corynebacterium ATCC 7715 [4] | MIC Trichophyton ATCC MYA-4438 [5] | MIC Shigella flexneri ATCC 12022 [6] | MIC MRSA [7] | MIC CREC [8] | MIC CRKP [9] | MIC CRPA [10] | MIC VRE [11] | MHC (minimum hemolytic concentration, lowest concentration causing 10% hemolysis) [12] | Trypsin MIC [13] | Number of mice that died on each day after infection: day 4 ([14]; 0.2 mg/kg gavage) | Number of mice that died on each day after infection: day 5 ([14]; 0.2 mg/kg gavage) | Number of mice that died on each day after infection: day 6 ([14]; 0.2 mg/kg gavage) | Number of mice that died on each day after infection: day 7 ([14]; 0.2 mg/kg gavage) | Number of mice that died on each day after infection: day 8 ([14]; 0.2 mg/kg gavage) | Average survival times (Days) ([14]; 0.2 mg/kg gavage) | Number of mice that died on each day after infection: day 4 ([14]; 1 mg/kg gavage) | other results
CC(=O)N[C@H](CCCCN)C(=O)N[C@H](CCCCN)C(=O)N[C@H](CC(C)C)C(=O)N[C@H](CC(C)C)C(=O)N[C@H](Cc1ccc2ccccc2c1)C(=O)N[C@H](CCCNC(=N)N)C(=O)N[C@H](CC(C)C)C(=O)N[C@H](CCCCN)C(=O)N[C@H](Cc1ccc2ccccc2c1)C(=O)N[C@H](CCCNC(=N)N)C(=O)N[C@H](CCCCN)C(N)=O [LV-19] (Ac-[dK][dK][dL][dL][d2Nal][dR][dL][dK][d2Nal][dR][dK]-NH2) | 1 µg/mL (≈ 0.618 µM) | 8 µg/mL (≈ 4.94 µM) | 16 µg/mL (≈ 9.89 µM) | 2 µg/mL (≈ 1.24 µM) | 8 µg/mL (≈ 4.94 µM) | 4 µg/mL (≈ 2.47 µM) | 4 µg/mL (≈ 2.47 µM) | 8 µg/mL (≈ 4.94 µM) | 4 µg/mL (≈ 2.47 µM) | 2 µg/mL (≈ 1.24 µM) | 4 µg/mL (≈ 2.47 µM) | >1000 µg/mL | 1 µg/mL | 0 Mouse | 2 Mouse | 1 Mouse | 2 Mouse | 1 Mouse | 9.4** Days | 0 Mouse | Number of mice that died on each day after infection: day 5 ([14]; 1 mg/kg gavage): 1 Mouse; Number of mice that died on each day after infection: day 6 ([14]; 1 mg/kg gavage): 1 Mouse; Number of mice that died on each day after infection: day 7 ([14]; 1 mg/kg gavage): 1 Mouse; Number of mice that died on each day after infection: day 8 ([14]; 1 mg/kg gavage): 0 Mouse; Average survival times (Days) ([14]; 1 mg/kg gavage): 11.6**** Days; Number of mice that died on each day after infection: day 4 ([14]; 5 mg/kg gavage): 0 Mouse; Number of mice that died on each day after infection: day 5 ([14]; 5 mg/kg gavage): 2 Mouse; Number of mice that died on each day after infection: day 6 ([14]; 5 mg/kg gavage): 1 Mouse; Number of mice that died on each day after infection: day 7 ([14]; 5 mg/kg gavage): 1 Mouse; Number of mice that died on each day after infection: day 8 ([14]; 5 mg/kg gavage): 0 Mouse; Average survival times (Days) ([14]; 5 mg/kg gavage): 10.7*** Days; survival time of mice infected with Escherichia coli [14]: superior to those of the Levofloxacin group; remaining at 12 h, 0.91 mg/mL [15]: 98.1%
CC(=O)N[C@H](CCCNC(=N)N)C(=O)N[C@H](CCCNC(=N)N)C(=O)N[C@H](CC(C)C)C(=O)N[C@H](CC(C)C)C(=O)N[C@H](Cc1ccc2ccccc2c1)C(=O)N[C@H](CCCNC(=N)N)C(=O)N[C@H](CC(C)C)C(=O)N[C@H](CCCNC(=N)N)C(=O)N[C@H](Cc1ccc2ccccc2c1)C(=O)N[C@H](CCCNC(=N)N)C(=O)N[C@H](CCCNC(=N)N)C(N)=O [LV-1] (Ac-[dR][dR][dL][dL][d2Nal][dR][dL][dR][d2Nal][dR][dR]-NH2) | 1 µg/mL (≈ 0.578 µM) | 8 µg/mL (≈ 4.62 µM) | 4 µg/mL (≈ 2.31 µM) | 2 µg/mL (≈ 1.16 µM) | 8 µg/mL (≈ 4.62 µM) | 4 µg/mL (≈ 2.31 µM) | 4 µg/mL (≈ 2.31 µM) | 2 µg/mL (≈ 1.16 µM) | 2 µg/mL (≈ 1.16 µM) | 4 µg/mL (≈ 2.31 µM) | 4 µg/mL (≈ 2.31 µM) | >1000 µg/mL | 1 µg/mL | 0 Mouse | 3 Mouse | 1 Mouse | 0 Mouse | 1 Mouse | 9.9** Days | 0 Mouse | Number of mice that died on each day after infection: day 5 ([14]; 1 mg/kg gavage): 0 Mouse; Number of mice that died on each day after infection: day 6 ([14]; 1 mg/kg gavage): 1 Mouse; Number of mice that died on each day after infection: day 7 ([14]; 1 mg/kg gavage): 1 Mouse; Number of mice that died on each day after infection: day 8 ([14]; 1 mg/kg gavage): 1 Mouse; Average survival times (Days) ([14]; 1 mg/kg gavage): 11.9**** Days; Number of mice that died on each day after infection: day 4 ([14]; 5 mg/kg gavage): 0 Mouse; Number of mice that died on each day after infection: day 5 ([14]; 5 mg/kg gavage): 0 Mouse; Number of mice that died on each day after infection: day 6 ([14]; 5 mg/kg gavage): 2 Mouse; Number of mice that died on each day after infection: day 7 ([14]; 5 mg/kg gavage): 1 Mouse; Number of mice that died on each day after infection: day 8 ([14]; 5 mg/kg gavage): 0 Mouse; Average survival times (Days) ([14]; 5 mg/kg gavage): 11.7**** Days; survival time of mice infected with Escherichia coli [14]: superior to those of the Levofloxacin group; remaining at 12 h, 0.91 mg/mL [15]: 98.5%
